Experimental data from patent publication US10561629B2, “Food containing glycine and use thereof” (AJINOMOTO CO., INC., priority 2004, dated 2020).
Read-outs that look alike come from different tables or passages of the source.

Columns and labels:
[1] = Description: A double-blind crossover test aiming at confirmation of the effect of glycine on sleep was performed with 14 male adults (body weight 64-112.5 kg, average 81.2 kg) concerned about snoring and apnea condition during sleep. The test participants took glycine (granules containing citric acid and the like) in an amount equivalent to 3 g of glycine 1 hr before bedtime, and reduced maltose containing components other than glycine (citric acid and the like) and adjusted to an almost indistinguishable taste was used as a placebo.
In addition, the sleep condition of the night before was examined on waking using the sleep questionnaire.

[2] = 3 g 30 min before bedtime, sleep limited to about 75%, next daytime, mean ± standard error
Description: A single-blind crossover study aimed at confirmation of the effect of glycine on sleep was performed with 7 male adults (30s-40s, body weight 62-79 kg). The test participants took glycine (granule containing citric acid and the like) in an amount equivalent to 3 g of glycine 30 min before bedtime, and reduced maltose containing components other than glycine (citric acid and the like) and adjusted to an almost indistinguishable taste was used as a placebo. The sleep hours on the day of administration was limited to about 75% (5-6.5 hr) of comfortable sleep hours each test participant voluntarily notified, and a nap was prohibited until the end of the administration. For the test, glycine and placebo were each taken for 3 days with an interval of a 14-21 day non-intake period, totaling 4-5 weeks. Of the 3 days, the following investigation and measurement were performed at 10 o'clock, 14 o'clock and 18 o'clock of the next day of the first day of the intake.
In addition, the p value is a statistical value showing the probability when the difference between glycine and placebo was hypothesized to be null. Particularly, this value of 0.05 or below is considered to indicate a significant difference.

[3] = Voluntary comments on quality of sleep, 77 participants (Experimental Example 5); conditions: 3 g glycine
[4] = for mental condition on waking: improved in comparison with placebo / mental condition on waking: no change in comparison with placebo / mental condition on waking: worsened in comparison with placebo / physical condition on waking: improved in comparison with placebo / physical condition on waking: no change in comparison with placebo / physical condition on waking: worsened in comparison with placebo: 3 g 1 hr before bedtime
Description: A double-blind crossover test aiming at confirmation of the effect of glycine on sleep was performed with 15 female adults (20s-50s, body weight 46-58 kg). The test participants took glycine (granule containing citric acid and the like) in an amount equivalent to 3 g of glycine 1 hr before bedtime, and reduced maltose containing components other than glycine (citric acid and the like) and adjusted to an almost indistinguishable taste was used as a placebo. For the test, glycine and placebo were each taken for 4 days with an interval of a 3 day non-intake period, totaling 2 weeks.
In the Table, the values of glycine and placebo show the test participant average of the points of evaluation in 8 levels in the sleep questionnaire “depth of sleep”. […] In addition, the p value is a statistical value showing the probability when the difference between glycine and placebo was hypothesized to be null. Particularly, this value of 0.05 or below is considered to indicate a significant difference.
(4) At the end of each 1 week test period, a question was asked about the soundness of sleep.

[5] = beagles, oral 30 or 300 mg/kg
Description: Glycine (substantially pure glycine powder) was administered at 0, 30, or 300 mg/kg (0 mg/kg for control, CTRL) to beagles, and using the beagles, the R-R interval in electrocardiogram was measured by a telemetry system as an index of sympathetic activity. The measurement was conducted in the night after glycine administration. From the R-R interval after oral administration of glycine, moreover, sympathetic activity ((low frequency component LF)/(high frequency component HF)) and parasympathetic activity (high frequency component HF) were examined by power spectrum analysis.

[6] = voluntary comments of 77 participants
[7] = participants 32 years old or older (6)
[8] = participants with PSQI not less than 9 (7)
[9] = SAM lassitude check list, 4-day total, difference by 1 point or more vs placebo, 15 participants
[10] = SAM lassitude check list, 4-day total, difference by 4 points or more vs placebo, 15 participants
[11] = out of 15 participants, end of each 1 week test period
[12] = participants 32 years old or older

participants commenting that the quality was degraded ([3]; out of 77 participants): 2 participants
Awakening was fresh: Degrading effect [3, 6]: 1 person
Deep sleep was realized: Degrading effect [3, 6]: 0 person
Did not wake up at midnight: Degrading effect [3, 6]: 1 person
Fell asleep easily: Degrading effect [3, 6]: 0 person
Had no dream: Degrading effect [3, 6]: 0 person
Sleep was deeper: Degrading effect [3, 6]: 0 person
Slept well: Degrading effect [3, 6]: 0 person
Snoring decreased: Degrading effect [3, 6]: 0 person
sleepiness during daytime reduced: Degrading effect [3, 6]: 0 person
Compound: NCC(=O)O [glycine, Glycine]
OSA sleep questionnaire point value, time of dozing off ([1]; participant average of 4 levels (0, 11, 19, 30 points), higher = shorter dozing, placebo 19.6): 24.9
OSA sleep questionnaire point value, depth of sleep ([1]; participant average of 4 levels (0, 11, 21, 32 points), higher = deeper, placebo 12.3): 16.7
lassitude (SAM lassitude check list total points) ([2]; placebo 9.0 ± 0.68, p value 0.025): 7.0 ± 0.74
sleepiness (distance from left end of 100 mm line) ([2]; placebo 50.7 ± 4.39, p value 0.042): 38.1 ± 4.47 mm
participants commenting that no effect was found ([3]; out of 77 participants): 17 participants
participants commenting that the quality of sleep was improved ([3]; out of 77 participants): 58 participants
Awakening was fresh: Enhancing effect on quality of sleep [3, 6]: 24 person
Deep sleep was realized: Enhancing effect on quality of sleep [3, 6]: 8 person
Did not wake up at midnight: Enhancing effect on quality of sleep [3, 6]: 6 person
Fell asleep easily: Enhancing effect on quality of sleep [3, 6]: 6 person
Had no dream: Enhancing effect on quality of sleep [3, 6]: 4 person
Sleep was deeper: Enhancing effect on quality of sleep [3, 6]: 10 person
Slept well: Enhancing effect on quality of sleep [3, 6]: 2 person
Snoring decreased: Enhancing effect on quality of sleep [3, 6]: 19 person
sleepiness during daytime reduced: Enhancing effect on quality of sleep [3, 6]: 4 person
mental condition on waking: improved in comparison with placebo [4, 7]: 5 person
mental condition on waking: no change in comparison with placebo [4, 7]: 1 person
mental condition on waking: worsened in comparison with placebo [4, 7]: 0 person
physical condition on waking: improved in comparison with placebo [4, 7]: 5 person
physical condition on waking: no change in comparison with placebo [4, 7]: 1 person
physical condition on waking: worsened in comparison with placebo [4, 7]: 0 person
mental condition on waking: improved in comparison with placebo [4, 8]: 5 person
mental condition on waking: no change in comparison with placebo [4, 8]: 2 person
mental condition on waking: worsened in comparison with placebo [4, 8]: 0 person
physical condition on waking: improved in comparison with placebo [4, 8]: 5 person
physical condition on waking: no change in comparison with placebo [4, 8]: 1 person
physical condition on waking: worsened in comparison with placebo [4, 8]: 1 person
Increase of lassitude on waking, effective criterion [4, 9]: 3 participants
No change of lassitude on waking, effective criterion [4, 9]: 1 participants
Reduction of lassitude on waking, effective [4, 9]: 11 participants
Increase of lassitude on waking, remarkably effective criterion [4, 10]: 2 participants
No change of lassitude on waking, remarkably effective criterion [4, 10]: 6 participants
Reduction of lassitude on waking, remarkably effective [4, 10]: 7 participants
Sleep questionnaire "depth of sleep" ([4]; average points, 8 levels, participants 32 years old or older, placebo 4.13, P value 0.042): 4.88
soundness of sleep: participants answering that both were the same [4, 11]: 8 participants
soundness of sleep: participants answering the week of glycine intake was fine [4, 11]: 6 participants
soundness of sleep: participants answering the week of placebo intake was fine [4, 11]: one
Effect of clearing head the next morning: effective in comparison with placebo [4, 12]: 5 person
Effect of clearing head the next morning: no change in comparison with placebo [4, 12]: 1 person
Effect of clearing head the next morning: worsened in comparison with placebo [4, 12]: 0 person
R-R interval in electrocardiogram ([5]; 1-4 hr after administration, compared to control): increased
parasympathetic activity (high frequency component HF) ([5]; power spectrum analysis of R-R interval): dominant
